Experimental data from PMC8467595, “Protective Effects of Linearthin and Other Chalcone Derivatives from Aspalathus linearis (Rooibos) against UVB Induced Oxidative Stress and Toxicity in Human Skin Cells” (Plants, 2021).
Values after ≈ are worked out from the molar mass of the structure shown. Like-named read-outs stand apart in the source and are kept apart here.

What was measured:
SK-MEL-1 cells [1] = assay: MTT cytotoxicity assay, pre-treatment 4 or 24 h with or without UVB irradiation; assay type: cell-based; conditions: Homo sapiens, read-out: IC50 (50% inhibition of viable cell number, MTT)
Experimental: (§1) The human epidermal keratinocytes (HaCaT) and melanoma (SK-MEL-1) cells used in this study were cultured in Roswell Park Memorial Institute (RPMI) 1640 media supplemented with antibiotics (100 U/mL streptomycin, 100 U/mL penicillin) and fetal calf serum (FCS, 10%). Cells were maintained at 37 °C in a humidified atmosphere of 5% CO2.
(§2) For experiments, before exposure to UVB, the cells were conditioned with various concentrations of total extract and isolated compounds thereof for 4 or 24 h. These periods were selected based on the half-life of the compounds as well as previous studies. Exposure to UVB was done according to a previous study. Cells were seeded (3 × 10^4) in 96-well tissue culture microtitre plates. Cell culture media was aspirated and the cells were overlayed with PBS. The cells were exposed to UVB light (80 mJ/cm^2) without the plastic lid. A UVIlink UV Crosslinker (UVitek Ltd., Aberdeen, UK) was fitted with six 8 Watt UV tubes giving a wavelength of 302 nm (Vilber Lourmat, Collégien, France). Control plates were not exposed to UVB light.
(§3) The MTT assay has been extensively used for determining the cytoprotective effects of several phytochemicals. To monitor cell viability as a measure of metabolic activity the MTT assay was performed. The conditioned HaCat and SK-MEL-1 cells (15,000 cells per well in 96-well plates) were incubated for 2 h using 100 μL MTT solution (5 mg/mL) after PBS washing. The MTT formazan crystals were then solubilised by DMSO resuspension. The optical density of the formazan product was read at 570 nm wavelength with a reference wavelength of 690 nm. The half-maximal inhibitory concentration (IC50) was determined.

HaCaT cells [2] = assay: as above; assay type: cell-based; conditions: Homo sapiens, read-out: IC50 (50% inhibition of viable cell number, MTT)
Experimental: as §1, §2, §3

SK-MEL-1 cells [3] = assay: Caspase 3/7 activation (ApoTox-Glo Triplex Assay); assay type: cell-based, human; conditions: SK-MEL-1, UVB irradiated cells
Experimental: as §2
(§4) The ApoTox-Glo™ Triplex Assay (Promega) was used to assess cytotoxicity and apoptosis events in the same cell-based assay well according to the manufacturer’s instructions with no deviation from standard protocol. Both luminescence and fluorescence were detected using a plate reader.

HaCaT cells [4] = assay: Caspase 3/7 activation (ApoTox-Glo Triplex Assay); assay type: cell-based, human; conditions: UVB irradiated cells
Experimental: as §2, §4

HaCaT cells [5] = assay: ATP bioluminescent assay (Cell Titer-Glo); assay type: cell-based, human; conditions: for ATP vs control cell levels: 24 h pre-exposure, UVB irradiated cells
Experimental: as §2
The ATP bioluminescent assay was used to quantify cellular ATP. The Cell Titer-Glo® assay (Promega, Madison, WI, USA) was carried out according to the manufacturer’s instructions. Cells were seeded in a white microtitre plate (20,000 cells per well) to which the ATP Cell Titer-Glo® Reagent was added (50 μL). The plate was incubated for 30 min at room temperature (RT) in the dark. Luminescence was measured on a Multiskan Spectrum plate reader (Thermo Fisher Scientific, Waltham, MA, USA). Luminescence is proportional to ATP levels and expressed as relative light units (RLU).

HaCaT cells [6] = assay: TBARS lipid peroxidation (MDA); assay type: cell-based, human; conditions: for MDA levels (lipid peroxidation): HaCaT
Experimental: as §2
(§5) The thiobarbituric acid reactive substances (TBARS) was used to quantify the levels of melondialdehyde (a marker of lipid peroxidation) in the supernatant of UVB irradiated and non-irradiated cells. The experiments were conducted as previously described. The optical density was measured at 532 nm with a reference wavelength of 600 nm using a plate reader. The mean optical density of five samples per treatment was calculated and divided by the absorption coefficient (156 mM^−1). Results were expressed as MDA concentration (μM). Reduced glutathione (GSH) was quantified using an in-house protocol with minor modifications. After the addition of reagents, the cells were lysed to allow quantification of GSH colourimetrically using a plate reader.

SK-MEL-1 cells [7] = assay: ATP bioluminescent assay (Cell Titer-Glo); assay type: cell-based, human; conditions: SK-MEL-1, 10 µg/mL, 24-h pre-treatment
Experimental: For experiments, before exposure to UVB, the cells were conditioned with various concentrations of total extract and isolated compounds thereof for 4 or 24 h. These periods were selected based on the half-life of the compounds as well as previous studies [22, 32]. Exposure to UVB was done according to a previous study. Cells were seeded (3 × 10^4) in 96-well tissue culture microtitre plates. Cell culture media was aspirated and the cells were overlayed with PBS. The cells were exposed to UVB light (80 mJ/cm^2) without the plastic lid. A UVIlink UV Crosslinker (UVitek Ltd., Aberdeen, UK) was fitted with six 8 Watt UV tubes giving a wavelength of 302 nm (Vilber Lourmat, Collégien, France) [22]. Control plates were not exposed to UVB light. The ATP bioluminescent assay was used to quantify cellular ATP. The Cell Titer-Glo® assay (Promega, Madison, WI, USA) was carried out according to the manufacturer’s instructions. Cells were seeded in a white microtitre plate (20,000 cells per well) to which the ATP Cell Titer-Glo® Reagent was added (50 μL). The plate was incubated for 30 min at room temperature (RT) in the dark. Luminescence was measured on a Multiskan Spectrum plate reader (Thermo Fisher Scientific, Waltham, MA, USA). Luminescence is proportional to ATP levels and expressed as relative light units (RLU).

SK-MEL-1 cells [8] = assay: TBARS lipid peroxidation (MDA); assay type: cell-based, human; conditions: SK-MEL-1, 24-h pre-treatment, after UVB exposure
Experimental: For experiments, before exposure to UVB, the cells were conditioned with various concentrations of total extract and isolated compounds thereof for 4 or 24 h. […] Exposure to UVB was done according to a previous study. Cells were seeded (3 × 10^4) in 96-well tissue culture microtitre plates. Cell culture media was aspirated and the cells were overlayed with PBS. The cells were exposed to UVB light (80 mJ/cm^2) without the plastic lid. A UVIlink UV Crosslinker (UVitek Ltd., Aberdeen, UK) was fitted with six 8 Watt UV tubes giving a wavelength of 302 nm (Vilber Lourmat, Collégien, France) [22]. Control plates were not exposed to UVB light. The thiobarbituric acid reactive substances (TBARS) was used to quantify the levels of melondialdehyde (a marker of lipid peroxidation) in the supernatant of UVB irradiated and non-irradiated cells. The experiments were conducted as previously described [45]. The optical density was measured at 532 nm with a reference wavelength of 600 nm using a plate reader. The mean optical density of five samples per treatment was calculated and divided by the absorption coefficient (156 mM^−1). Results were expressed as MDA concentration (μM).

SK-MEL-1 cells [9] = assay: Reduced glutathione (GSH) quantification; assay type: cell-based, human; conditions: SK-MEL-1 pre-treated cells
Experimental: as §2, §5

HaCaT cells [10] = assay: Reduced glutathione (GSH) quantification; assay type: cell-based, human
Experimental: as §2, §5

[11] = SK-MEL-1, SK-MEL-1, No UV, pre-treatment 4 h
[12] = SK-MEL-1, SK-MEL-1, No UV, pre-treatment 24 h
[13] = SK-MEL-1, light or radiation study, SK-MEL-1, UVB irradiation after pre-treatment 4 h
[14] = SK-MEL-1, light or radiation study, SK-MEL-1, UVB irradiation after pre-treatment 24 h
[15] = light or radiation study, UVB irradiation after pre-treatment 4 h
[16] = light or radiation study, UVB irradiation after pre-treatment 24 h

SMILES	IC50 (SK-MEL-1 cells [1]; [11]) [µg/mL]	IC50 (SK-MEL-1 cells [1]; [12]) [µg/mL]	IC50 (SK-MEL-1 cells [1]; [13]) [µg/mL]	IC50 (SK-MEL-1 cells [1]; [14]) [µg/mL]	IC50 (HaCaT cells [2]; No UV, pre-treatment 4 h) [µg/mL]	IC50 (HaCaT cells [2]; No UV, pre-treatment 24 h) [µg/mL]	IC50 (HaCaT cells [2]; [15]) [µg/mL]	IC50 (HaCaT cells [2]; [16]) [µg/mL]	caspase 3/7 activation (SK-MEL-1 cells [3])	caspase 3/7 activation (HaCaT cells [4])	ATP vs control cell levels (HaCaT cells [5])	MDA levels (lipid peroxidation) (HaCaT cells [6]; 4-h pre-treatment, UVB exposed, vs cells with no isolate intervention)	MDA formation by UVB vs cells not exposed to UVB (HaCaT cells [6]; lowest concentration, 4-h pre-treatment, cell line not given)	ATP in UVB irradiated vs non-UVB irradiated cells (SK-MEL-1 cells [7])	MDA levels (lipid peroxidation) (SK-MEL-1 cells [8])	MDA levels (lipid peroxidation) (HaCaT cells [6]; 24-h pre-treatment, after UVB exposure)	GSH levels, resistance to UVB irradiation (SK-MEL-1 cells [9])	GSH content (HaCaT cells [10]; pre-treatment 4 h, UVB exposed and non-exposed cells)	GSH levels (HaCaT cells [10]; pre-treatment 24 h)	ATP in UVB irradiated vs non-irradiated cells (HaCaT cells [5]; 100 µg/mL)
O=C(CCc1ccc(O)c(O)c1)c1c(O)cc(O)c2c1OC1(C2)O[C@@H](CO)[C@H](O)[C@H]1O (relative stereo) [Compound 1, linearthin]	330 (≈ 759 µM)	124 (≈ 285 µM)	248 (≈ 572 µM)	143 (≈ 328 µM)	117 (≈ 269 µM)	105 (≈ 242 µM)	266 (≈ 612 µM)	282 (≈ 649 µM)	inhibited the activation of executioner caspases in a dose-dependent manner	inhibited the activation of executioner caspases in a dose-dependent manner	maintain ATP above control cell levels	only the lowest concentration reduced MDA significantly	circumvent MDA formation by UVB to below levels observed in cells not exposed to UVB	–	–	–	–	–	–	–
O=C(CCc1ccc(O)c(O)c1)c1c(O)cc(O)c(C2OC(CO)C(O)C(O)C2O)c1O (stereo not drawn) [Compound 2, aspalathin]	93.6 (≈ 207 µM)	66.4 (≈ 147 µM)	72.2 (≈ 160 µM)	70 (≈ 155 µM)	209 (≈ 462 µM)	122 (≈ 270 µM)	399 (≈ 882 µM)	145 (≈ 321 µM)	inhibited the activation of executioner caspases in a dose-dependent manner	inhibited the activation of executioner caspases in a dose-dependent manner	–	–	–	significantly increase ATP to above levels observed in non-UVB irradiated cells	significant (p < 0.05) reduction in MDA levels at all tested concentrations	significant (p < 0.05) reduction in MDA levels at all tested concentrations	improved GSH levels	only active at the lowest concentration tested	only active at the lowest concentration tested	–
O=C(CCc1ccc(O)cc1)c1c(O)cc(O)c(C2OC(CO)C(O)C(O)C2O)c1O (stereo not drawn) [Compound 3, nothofagin]	208 (≈ 477 µM)	210 (≈ 482 µM)	119 (≈ 273 µM)	123 (≈ 282 µM)	144 (≈ 330 µM)	123 (≈ 282 µM)	196 (≈ 450 µM)	164 (≈ 376 µM)	inhibited the activation of executioner caspases in a dose-dependent manner	inhibited the activation of executioner caspases in a dose-dependent manner	maintain ATP above control cell levels	–	–	significantly increase ATP to above levels observed in non-UVB irradiated cells	–	–	–	–	–	increase ATP in UVB irradiated cells to above levels observed in non-irradiated cells
